Assay results: paper PMC2189693 (The Journal of Experimental Medicine, 1988)

System: anti-al mAb, 3-2F1
Type: binding, mouse
Settings: for Inhibition of binding of rabbit a1 Ig to anti-a1 antibody (in words): RIA with mAb 3-2F1, 24 h preincubation of inhibitor, result in words

Substance | expression of an a1 epitope (in words) (conclusion from peptide inhibition of al Ig binding to anti-al) | Inhibition of binding of rabbit a1 Ig to anti-a1 antibody (in words)
IT_SPTTEDTAT_YFCA [RA1] | each appear to define an al epitope | –
MQIFVKTLTGKDPGG [UB1, reference compound] | – | Neither the substituted peptide, SMA1, nor the control peptide, UB1, inhibited binding
IGYIYPNIDDSAY_SQ [SMA1] | – | Neither the substituted peptide, SMA1, nor the control peptide, UB1, inhibited binding
